Measurements from BigSolDB 2.1.

O=Cc1ccc2ccccc2c1
solubility (mole fraction)
Details | 283.15 K | 288.15 K | 293.15 K | 298.15 K | 303.15 K | 308.15 K | 313.15 K
in ethanol | 0.0161 | 0.0245 | 0.0377 | 0.0653 | 0.11 | 0.191 | 0.314
in isopropanol | 0.0115 | 0.0201 | 0.0404 | 0.0557 | 0.0908 | 0.144 | 0.237
in methanol | 0.00592 | 0.00987 | 0.0163 | 0.0274 | 0.0418 | 0.0696 | 0.119
in n-butanol | 0.0195 | 0.0281 | 0.0425 | 0.0561 | 0.0758 | 0.117 | 0.164
in n-heptane | 0.00944 | 0.0128 | 0.0164 | 0.0192 | 0.0255 | 0.0345 | 0.0415
in n-hexane | 0.00727 | 0.00923 | 0.0128 | 0.0159 | 0.0189 | 0.026 | 0.0314
